Converted amounts (≈) assume the structure as drawn.
Experiments:
Cheumatopsyche = assay: Insecticidal activity against first-instar larvae of Cheumatopsyche brevilineata after 48 hr; type: functional, organism-based
[1] = Octanol-water partition coefficient, log KOW of the compound
Daphnia magna = assay: Insecticidal activity against Daphnia magna after 48 hr; type: functional, organism-based
Daphnia pulex = assay: Insecticidal activity against Daphnia pulex after 48 hr; type: functional, organism-based

| Compound | EC50 (Cheumatopsyche) [ng/mL] | logP [1] | EC50 (Daphnia magna) [ng/mL] | LC50 (Daphnia magna; Daphnia magna, 48 h) [ng/mL] | EC50 (Daphnia pulex) [ng/mL] | log KOW [1] |
| --- | --- | --- | --- | --- | --- | --- |
| CNC(=O)Oc1cc(C)cc(C)c1 | 58.9 (≈ 0.329 µM) | 2.3 | 30 (≈ 0.167 µM) |  |  |  |
| CCN(Cc1ccc(Cl)nc1)/C(=C/[N+](=O)[O-])NC | 45 (≈ 0.166 µM) |  | > 100000 |  |  |  |
| C/C(=N\C#N)N(C)Cc1ccc(Cl)nc1 | 3.35 (≈ 0.015 µM) | 0.8 | 50000 (≈ 225 µM) |  |  |  |
| CCOC(=O)CCN(SN(C)C(=O)Oc1cccc2c1OC(C)(C)C2)C(C)C [BENFURACARB] | 6.66 (≈ 0.0162 µM) | 4.22 | 9.9 (≈ 0.0241 µM) |  |  |  |
| CN(C)C(CSS(=O)(=O)c1ccccc1)CSS(=O)(=O)c1ccccc1 [BENSULTAP] | 148 (≈ 0.343 µM) | 2.28 |  | 200 (≈ 0.463 µM) |  |  |
| CC(C)N1C(=O)N(c2ccccc2)CS/C1=N\C(C)(C)C [BUPROFEZIN] | 181 (≈ 0.593 µM) | 4.3 | > 420 |  |  |  |
| CNC(=O)Oc1cccc2ccccc12 [CARBARIL] | 21.4 (≈ 0.106 µM) | 1.85 | 5.6 (≈ 0.0278 µM) |  |  |  |
| CCCCN(CCCC)SN(C)C(=O)Oc1cccc2c1OC(C)(C)C2 [CARBOSULFAN] | 1.49 (≈ 0.00392 µM) | 5.4 |  |  | 1.03 (≈ 0.00271 µM) |  |
| CN(C)C(CSC(N)=O)CSC(N)=O.Cl [CARTAP HYDROCHLORIDE] | 3.7 |  | 65 |  |  |  |
| CN/C(=N\[N+](=O)[O-])NCc1cnc(Cl)s1 [CLOTHIANIDINE] | 4.44 (≈ 0.0178 µM) |  | > 119000 |  |  |  |
| COP(=O)(OC)OC=C(Cl)Cl [DICHLORVOS] | 1.17 (≈ 0.00529 µM) | 1.9 | 0.2 (≈ 0.000905 µM) |  |  |  |
| CCOP(=S)(OCC)Oc1cc(C)nc(C(C)C)n1 [DIMPYLATE] | 1.77 (≈ 0.00582 µM) |  | 0.87 (≈ 0.00286 µM) |  |  |  |
| CN/C(=N/CC1CCOC1)N[N+](=O)[O-] (stereo unspecified) [DINOTEFURAN] | 10.4 (≈ 0.0514 µM) |  | > 968300 |  |  | -0.644 |
| CCOc1ccc(C(C)(C)COCc2cccc(Oc3ccccc3)c2)cc1 [ETOFENPROX] | 0.116 (≈ 0.000308 µM) |  | 0.57 (≈ 0.00151 µM) |  |  |  |
| COP(=S)(OC)Oc1ccc([N+](=O)[O-])c(C)c1 [FENITROTHION] | 7.78 (≈ 0.0281 µM) | 3.43 | 11 (≈ 0.0397 µM) |  |  |  |
| CCC(C)c1ccccc1OC(=O)NC (stereo unspecified) [FENOBUCARB] | 9.48 (≈ 0.0457 µM) | 2.79 |  |  | 10.3 (≈ 0.0497 µM) |  |
| COP(=S)(OC)Oc1ccc(SC)c(C)c1 [FENTHION] | 2.14 (≈ 0.00769 µM) |  | 5.2 (≈ 0.0187 µM) |  |  |  |
| N#Cc1nn(-c2c(Cl)cc(C(F)(F)F)cc2Cl)c(N)c1[S+]([O-])C(F)(F)F (stereo unspecified) [FIPRONIL] | 0.153 (≈ 0.00035 µM) |  | 190 (≈ 0.435 µM) |  |  |  |
| O=[N+]([O-])/N=C1\NCCN1Cc1ccc(Cl)nc1 [IMIDACLOPRID] | 4.22 (≈ 0.0165 µM) |  | 85200 (≈ 333 µM) |  |  |  |
| CCOC(=O)CC(SP(=S)(OC)OC)C(=O)OCC (stereo unspecified) [MALATHION] | 1.81 (≈ 0.00548 µM) | 2.75 | 1 (≈ 0.00303 µM) |  |  |  |
| CNC(=O)ON=C(C)SC [METHOMYL] | 68.1 (≈ 0.42 µM) | 0.093 | 8.8 (≈ 0.0542 µM) |  |  |  |
| CC1(C)C(C=C(Cl)Cl)C1C(=O)OCc1cccc(Oc2ccccc2)c1 (stereo unspecified) [PERMETHRIN] | 0.205 (≈ 0.000524 µM) |  | 0.6 (≈ 0.00153 µM) |  |  | 6.1 |
| CCOC(=O)C(SP(=S)(OC)OC)c1ccccc1 (stereo unspecified) [PHENTHOATE] | 0.88 (≈ 0.00275 µM) |  | 0.34 (≈ 0.00106 µM) |  |  |  |
| CC1=NNC(=O)N(/N=C/c2cccnc2)C1 [PYMETROZINE] | 112000 (≈ 516 µM) |  | 87000 (≈ 400 µM) |  |  |  |
| CCOc1ccc([Si](C)(C)CCCc2ccc(F)c(Oc3ccccc3)c2)cc1 [SILAFLUOFEN] | 0.6 (≈ 0.00147 µM) |  | 1.2 (≈ 0.00294 µM) |  |  |  |
| CCc1ccc(C(=O)NN(C(=O)c2cc(C)cc(C)c2)C(C)(C)C)cc1 [TEBUFENOZIDE] | > 830 |  | 3800 (≈ 10.8 µM) |  |  |  |
| N#C/N=C1\SCCN1Cc1ccc(Cl)nc1 [THIACLOPRID] | 5.27 (≈ 0.0209 µM) |  | 22520 (≈ 89.1 µM) |  |  |  |
| CN(C)C1CSSSC1.O=C(O)C(=O)O [THIOCYCLAM HYDROGEN OXALATE] | 5.76 | -0.07 |  |  | 2010 |  |
| CS/C(C)=N\OC(=O)N(C)SN(C)C(=O)O/N=C(\C)SC [THIODICARB] | 145 (≈ 0.409 µM) | 1.62 | 27 (≈ 0.0762 µM) |  |  |  |
| COP(=O)(OC)C(O)C(Cl)(Cl)Cl (stereo unspecified) [TRICHLORFON] | 2.02 (≈ 0.00785 µM) |  | 0.36 (≈ 0.0014 µM) |  |  |  |
